Results as given in US20240124520A1, “N-ACYLATED HISTIDINE DIPEPTIDES AS ANTICANCER AGENTS” (THE BOARD OF TRUSTEES OF THE LELAND STANFORD JUNIOR …, priority 2019, published 2024).
Non-standard residues stand in square brackets, D forms with d. Residues, ends and D or L forms follow the SMILES beside them. *: point of attachment. Palmitoyl = CCCCCCCCCCCCCCCC(=O)*

Test system: MDA-MB-231 triple-negative human breast cancer cells
Experiment: Cell Titer Blue in vitro cell viability assay, MDA-MB-231
Assay type: cell-based
Conditions: MDA-MB-231 (DMEM); for IC50: MDA-MB-231, 72 h, 3 days at 37° C.
Description: FIG. 1: Dose Response curve for MBC017 with MDA-MB-231 cells. Compound MBC017 was incubated with MDA-MB-231 triple-negative human breast cancer cells at the indicated concentrations for 3 days at 37° C. prior to Cell Titer Blue fluorescence-based cell viability assay. Normalized cell viability data, expressed as a percentage, are averaged from three biological replicates and standard error represented by error bars for each averaged data point (empty squares). The compound concentrations are represented on log scale on the x-axis in μM units. Data were analyzed using free software called DrFit, as described in Nature Scientific Reports, Article number: 14701, (2015). […] The data were not sufficient to calculate an accurate IC50 value.
A commercially available in vitro cell viability reagent (Cell Titer Blue) was employed to determine the anti-cancer effectiveness of several compounds (1-5) against multiple cancer and healthy tissue-derived cell lines. Cell lines are summarized in Table 2, as follows: All cell lines and information on each cell lines origins and characteristics were procured from ATCC (www.atcc.org). Common names and ATCC product IDs are shown in the first (leftmost) column. From the left, the second and third columns describe the organism and tissue from which each cell line was isolated. The fourth and fifth columns indicate the cell type and disease status (e.g. normal versus carcinoma) of each cell line. The sixth column provides a summary of what compounds were tested against each cell line using an in vitro cell viability assay. Peptide name IDs are shown in parenthesis for each compound, numbered 1 through 5.
The Cell Titer Blue reagent (available from Promega, Inc.) is a buffered solution containing resazurin, a compound that is converted to resorufin, a detectable fluorescent product, by metabolically active cells. The fluorescence intensity of resorufin product therefore serves as a proportional measure of the number of viable cells, permitting changes in cell viability within cancer or other cell lines to be monitored in response to the addition of cytotoxic or cytostatic agents. Various human breast tissue-derived cell lines are widely employed to study the effects of potential therapeutics against breast cancer in vitro. Human breast cancer cell lines may be subdivided into groups based upon hormone receptor status, i.e. estrogen, progesterone and human epidermal growth factor positive or negative. A healthy human breast tissue-derived cell line, hTERT-HME1 may be used to determine the effect of therapeutic agents on healthy human breast tissue in vitro. Additionally, a highly metastatic and aggressive murine (mouse) breast cancer cell line, 4T1, has been extensively used to monitor breast cancer metastasis from the mammary fat pads of mice to the lungs in order to systematically survey the anti-metastatic effectiveness of anti-cancer therapeutics in an in vivo animal model. Metastases to the lungs may be conveniently quantified by a well-established clonogenic assay. Other human tissue-derived model cell lines, representative of various cancers, other than breast cancer, may be utilized to assess the potential of anti-cancer compounds in vitro. These include, K-562 (chronic myelogenous leukemia), HEPG2 (hepatocellular carcinoma), OVCAR-3 (ovarian adenocarcinoma), SK—N—SH (neuroblastoma) and A549 (lung carcinoma). Several compounds were assayed in vitro using the Cell Titer Blue viability assay against an array of cancer cell lines of both human and murine origin plus one healthy human breast cell line (Table 1, FIGS. 1-16). A mouse 4T1 metastasis study was performed to determine the anti-metastatic potential of one compound, MBC0179 (FIG. 17).
Dimethyl sulfoxide (DMSO), Cremophor EL, methylene blue, 100× antibiotic/antimycotic solution, collagenase (Type IV), DNAse I and 6-thioguanine were available from Millipore-Sigma. […]

| IC50 [µM] | Structure (SMILES) | cytotoxicity at 125 µM (72 h, 125 μM, relative to vehicle, 3 days of incubation, read-out: reduction in viability) [%] |
| --- | --- | --- |
| 13.1 | CCCCCCCCCCCCCCCC(=O)N[C@@H](Cc1c[nH]cn1)C(=O)N[C@H](C(=O)OCC)C(C)C [Compound 3, N-[N-(1-oxohexadecyl)-L-histidyl]-L-valine ethyl ester] (Palmitoyl-His-Val-OEt) | – |
| 62.1 | CCCCCCCCCCCCCCCC(=O)N[C@H](Cc1c[nH]cn1)C(=O)N[C@@H](C(=O)O)C(C)C [Compound 4, N-[N-(1-oxohexadecyl)-D-histidyl]-D-valine] (Palmitoyl-[dH]-[dV]-OH) | – |
| – | CCCCCCCCCCCCCCCC(=O)N[C@@H](Cc1c[nH]cn1)C(=O)N[C@H](C(=O)O)C(C)C [Compound 1, N-[N-(1-oxohexadecyl)-L-histidyl]-L-valine] (Palmitoyl-His-Val-OH) | ~40 |
| 6730 | CCCCCCCCCCCCCCCC(=O)N[C@@H](Cc1c[nH]cn1)C(=O)N[C@H](C(=O)O)[C@@H](C)CC [Compound 2, N-[N-(1-oxohexadecyl)-L-histidyl]-L-isoleucine] (Palmitoyl-His-Ile-OH) | – |
